Target: HLA-DQ2 (Homo sapiens, UniProt P01909+P01920)
Assay: Inhibition of IL-2 secretion by TCR transductants stimulated by α-gliadin peptides presented by HLA-DQ2 expressing K562 cells (ELISA)
Type: cell-based
Settings: inhibition of IL-2 secretion at 200 uM; tested as trans racemate unless otherwise noted; lines naming several Examples = stereoisomer mixture of those Examples
Method: Three commercially available analogues of the DQ2 binding molecules of the invention were tested for their ability to inhibit stimulation of T cell receptor (TCR) transductants in the presence of HLA-DQ2 expressing cells presenting known α-gliadin epitopes.
Using a previously published in vitro assay (Ostrov D, et al. Methyldopa blocks MHC class II binding to disease specific antigens in autoimmune diabetes. J Clin Invest. 2018:128 (5)) the ability of these DQ2 binding analogues to inhibit interleukin-2 (IL-2) secretion by TCR transductants stimulated by α-gliadin peptides presented by HLA-DQ2 was determined. Individual TCR transductants (recognizing a I-gliadin or a II-gliadin) were cultured with a gliadin peptide plus the small molecule analogues in the presence of HLA-DQ2 expressing K562 cells serving as antigen presenting cells. TCR transductants cultured with no gliadin peptide served as the negative control, and incubation with an anti-CD3 antibody (eBioscience; clone 2C11) served as a positive control for the TCR transductant. Secreted IL-2 in the culture supernatant was measured using a highly sensitive enzyme-linked immunosorbent assay (ELISA). […] Assays for effects on cell viability and for specificity, assayed in the absence of gliadin peptide or in the presence of a stimulating anti-CD3 antibody, were performed. Unless otherwise noted, the stereochemistry shown below represents the relative configuration. Further, unless otherwise noted, compounds were tested as the trans racemate.

Sequence of HLA-DQ2 (P01920 33-261 limits assumed, other chains not shown): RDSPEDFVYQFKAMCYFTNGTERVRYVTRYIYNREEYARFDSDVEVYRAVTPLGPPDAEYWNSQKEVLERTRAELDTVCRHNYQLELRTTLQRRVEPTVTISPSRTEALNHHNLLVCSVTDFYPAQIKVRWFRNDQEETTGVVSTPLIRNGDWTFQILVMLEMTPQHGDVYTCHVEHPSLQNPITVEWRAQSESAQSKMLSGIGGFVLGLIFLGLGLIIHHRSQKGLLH

Row | Compound | % Inh at 200 uM
1 | CCCCSCC(=O)N1CCN(C(=O)[C@@H]2C[C@H]2c2ccccc2)CC1 (relative stereo) [Example 47, 2-(Butylthio)-1-(4-(trans-2-phenylcyclopropane-carbonyl)piperazin-1-yl)ethanone] | B (B=50-74%)
2 | O=C(COC1CCC1)N1CCN(C(=O)[C@@H]2C[C@H]2c2ccccc2)CC1 (racemic) [Example 39, 2-Cyclobutoxy-1-(4-(trans-2-phenylcyclopropanecarbonyl)piperazin-1-yl) ethanone] | B (B=50-74%)
3 | O=C(C1CCCC1)N1CCN(C(=O)C2CC2c2ccc3c(c2)OCO3)CC1 (centres unmarked) [Example 25] | A (A=≥75%)
4 | O=C(c1cc(Cl)ccc1Cl)N1CCN(C(=O)C2CC2c2ccc3c(c2)OCO3)CC1 (centres unmarked) [Example 18] | A (A=≥75%)
5 | O=C(Cc1cccs1)N1CCN(C(=O)C2CC2c2ccc3c(c2)OCO3)CC1 (centres unmarked) [Example 24] | A (A=≥75%)
6 | O=C(CSC1CCCC1)N1CCN(C(=O)[C@H]2C[C@@H]2c2ccc(O)cc2)CC1 [Example 30] | D (D=0-24%)
7 | Cc1ccc(C)c(SCC(=O)N2CCN(C(=O)[C@@H]3C[C@H]3c3ccccc3)CC2)c1 (relative stereo) [Example 55, 2-((2,5-Dimethylphenyl)thio)-1-(4-(trans-2-phenylcyclo-propanecarbonyl)piperazin-1-yl)-ethanone] | B (B=50-74%)
8 | CN(C)c1cccc(C(=O)N2CCN(C(=O)C3CC3c3ccc4c(c3)OCO4)CC2)c1 (centres unmarked) [Example 20] | B (B=50-74%)
9 | O=C(c1ccccc1C(F)(F)F)N1CCN(C(=O)C2CC2c2ccc3c(c2)OCO3)CC1 (centres unmarked) [Example 21] | C (C=25-49%)
10 | COc1cccc([C@H]2C[C@@H]2C(=O)N2CCN(C(=O)CSC3CCCC3)CC2)c1 [Example 27] | B (B=50-74%)
11 | O=C(CSC1CCCC1)N1CCN(C(=O)[C@H]2C[C@@H]2c2ccccc2)CC1 [Example 13, 2-(Cyclopentylthio)-1-(4-((1S,2S)-2-phenylcyclopropanecarbonyl)piperazin-1-yl)ethanone] | A (A=≥75%)
12 | O=C(CSC1CCCC1)N1CCN(C(=O)[C@H]2C[C@@H]2c2ccccc2O)CC1 [Example 37] | B (B=50-74%)
13 | COc1ccccc1[C@H]1C[C@@H]1C(=O)N1CCN(C(=O)CSC2CCCC2)CC1 [Example 34] | B (B=50-74%)
14 | Cc1cc(F)ccc1SCC(=O)N1CCN(C(=O)[C@@H]2C[C@H]2c2ccccc2)CC1 (relative stereo) [Example 61, 2-((4-Fluoro-2-methylphenyl)thio)-1-(4-(trans-2-phenylcyclopropanecarbonyl)-piperazin-1-yl)ethanone] | B (B=50-74%)
15 | O=C(CSC1CCCC1)N1CCN(C(=O)[C@H]2C[C@@H]2c2cccc(O)c2)CC1 [Example 29] | B (B=50-74%)
16 | O=C(CSC1CCCCC1)N1CCN(C(=O)[C@@H]2C[C@H]2c2ccccc2)CC1 [Example 41, 2-(Cyclohexylthio)-1-(4-((1R, 2R)-2-phenylcyclopropane-1-carbonyl)piperazin-1-yl) ethan-1-one] | B (B=50-74%)
17 | CCOc1ccccc1C(=O)N1CCN(C(=O)C2CC2c2ccc3c(c2)OCO3)CC1 (centres unmarked) [Example 17] | C (C=25-49%)
18 | O=C(COC1CC1)N1CCN(C(=O)[C@@H]2C[C@H]2c2ccccc2)CC1 (racemic) [Example 38, 2-Cyclopropoxy-1-(4-(trans-2-phenylcyclopropanecarbonyl)piperazin-1-yl) ethanone] | C (C=25-49%)
19 | O=C(CSC1CCCC1)N1CCN(C(=O)[C@H]2C[C@@H]2c2ccc(F)c(F)c2)CC1 [Example 35] | A (A=≥75%)
20 | N#Cc1cccc([C@H]2C[C@@H]2C(=O)N2CCN(C(=O)CSC3CCCC3)CC2)c1 [Example 31] | C (C=25-49%)
21 | CS(=O)(=O)N1CCC(C(=O)N2CCN(C(=O)C3CC3c3ccc4c(c3)OCO4)CC2)CC1 (centres unmarked) [Example 26] | C (C=25-49%)
22 | CC(C)c1ccc(SCC(=O)N2CCN(C(=O)[C@@H]3C[C@H]3c3ccccc3)CC2)cc1 (relative stereo) [Example 54, 2-((4-Isopropylphenyl)thio)-1-(4-(trans-2-phenylcyclopropane-1-carbonyl)piperazin-1-yl) ethan-1-one] | B (B=50-74%)
23 | O=C(COC1CCCCCC1)N1CCN(C(=O)[C@@H]2C[C@H]2c2ccccc2)CC1 (relative stereo) [Example 52, 2-(Cycloheptyloxy)-1-(4-(trans-2-phenylcyclopropane-carbonyl)piperazin-1-yl)ethanone] | A (A=≥75%)
24 | Cc1ccccc1SCC(=O)N1CCN(C(=O)[C@@H]2C[C@H]2c2ccccc2)CC1 (relative stereo) [Example 50, 1-(4-(Trans-2-phenylcyclopropanecarbonyl)piperazin-1-yl)-2-(o-tolylthio)ethanone] | C (C=25-49%)
25 | O=C(CSc1ccccc1F)N1CCN(C(=O)[C@@H]2C[C@H]2c2ccccc2)CC1 (relative stereo) [Example 58, 2-((2-Fluorophenyl)thio)-1-(4-(trans-2-phenylcyclopropane-1-carbonyl)piperazin-1-yl) ethan-1-one] | A (A=≥75%)
26 | Cc1ccc(SCC(=O)N2CCN(C(=O)[C@@H]3C[C@H]3c3ccccc3)CC2)cc1C (relative stereo) [Example 56, 2-((3,4-Dimethylphenyl)thio)-1-(4-(trans-2-phenylcyclopropanecarbonyl)piperazin-1-yl) ethanone] | B (B=50-74%)

Further lines, results first:

Row | % Inh at 200 uM | Compound
27 | C (C=25-49%) | O=C(CSC1CCCC1)N1CCN(C(=O)[C@@H]2C[C@H]2c2ccc(F)cc2)CC1 [Example 68]
28 | A (A=≥75%) | Cc1ccc(SCC(=O)N2CCN(C(=O)[C@@H]3C[C@H]3c3ccccc3)CC2)c(F)c1 (relative stereo) [Example 71, 2-((2-Fluoro-4-methylphenyl)thio)-1-(4-(trans-2-phenylcyclopropane-1-carbonyl)piperazin-1-yl) ethan-1-one]
29 | C (C=25-49%) | NC(=O)c1ccc(OCC(=O)N2CCN(C(=O)[C@@H]3C[C@H]3c3ccccc3)CC2)cc1 [Example 89]
30 | D (D=0-24%) | O=C(O)CCNCC(=O)N1CCN(C(=O)[C@@H]2C[C@H]2c2ccccc2)CC1 [Example 111]
31 | A (A=≥75%) | O=C(COc1ccc(F)cc1)N1CCN(C(=O)[C@@H]2C[C@H]2c2ccccc2)CC1 [Example 108]
32 | B (B=50-74%) | CN(CC(=O)N1CCN(C(=O)[C@H]2CC2c2ccccc2)CC1)C1CCCC1 (some centres unmarked) [Example 82]
33 | C (C=25-49%) | O=CNc1ccccc1SCC(=O)N1CCN(C(=O)[C@@H]2C[C@H]2c2ccccc2)CC1 [Example 86]
34 | B (B=50-74%) | O=C(COc1cccc(O)c1)N1CCN(C(=O)[C@@H]2C[C@H]2c2ccccc2)CC1 [Example 96]
35 | B (B=50-74%) | O=C(COc1cccc(F)c1)N1CCN(C(=O)[C@@H]2C[C@H]2c2ccccc2)CC1 [Example 99]
36 | B (B=50-74%) | O=CNc1ccccc1OCC(=O)N1CCN(C(=O)[C@@H]2C[C@H]2c2ccccc2)CC1 [Example 93]
37 | A (A=≥75%) | O=C(CSC1CCCCCC1)N1CCN(C(=O)[C@@H]2C[C@H]2c2ccccc2)CC1 (relative stereo) [Example 69, 2-(Cycloheptylthio)-1-(4-(trans-2-phenylcyclopropane-1-carbonyl)piperazin-1-yl) ethan-1-one]
38 | C (C=25-49%) | O=C(CS(=O)(=O)C1CCCC1)N1CCN(C(=O)[C@@H]2CC2c2ccccc2)CC1 (some centres unmarked) [Example 102]
39 | C (C=25-49%) | COc1cccc(SCC(=O)N2CCN(C(=O)[C@@H]3C[C@H]3c3ccccc3)CC2)c1 [Example 62]
40 | B (B=50-74%) | NC(=O)c1ccccc1OCC(=O)N1CCN(C(=O)[C@@H]2C[C@H]2c2ccccc2)CC1 [Example 90]
41 | B (B=50-74%) | NC(=O)c1cccc(OCC(=O)N2CCN(C(=O)[C@@H]3C[C@H]3c3ccccc3)CC2)c1 [Example 91]
42 | C (C=25-49%) | O=C(CSc1cccc(O)c1)N1CCN(C(=O)[C@@H]2C[C@H]2c2ccccc2)CC1 [Example 87]
43 | D (D=0-24%) | O=C(CN1CCCC1=O)N1CCN(C(=O)[C@@H]2C[C@H]2c2ccccc2)CC1 [Example 115]
44 | A (A=≥75%) | O=C(CSc1ccc(Cl)cc1F)N1CCN(C(=O)[C@@H]2C[C@H]2c2ccccc2)CC1 (relative stereo) [Example 103, 2-((4-Chloro-2-fluorophenyl)thio)-1-(4-(trans-2-phenylcyclo-propane-1-carbonyl)piperazin-1-yl) ethan-1-one]
45 | A (A=≥75%) | Cc1cc(Cl)ccc1SCC(=O)N1CCN(C(=O)[C@@H]2C[C@H]2c2ccccc2)CC1 (relative stereo) [Example 72, 2-((4-Chloro-2-methylphenyl)thio)-1-(4-(trans-2-phenylcyclo-propanecarbonyl)piperazin-1-yl) ethanone]
46 | C (C=25-49%) | O=CNc1cccc(OCC(=O)N2CCN(C(=O)[C@@H]3C[C@H]3c3ccccc3)CC2)c1 [Example 94]
47 | A (A=≥75%) | COC(=O)c1cccc(OCC(=O)N2CCN(C(=O)[C@@H]3C[C@H]3c3ccccc3)CC2)c1 [Example 101]

From patent US11945790B2 (ImmunoMolecular Therapeutics, Inc., priority 2020, dated 2024)
